In ChEMBL document CHEMBL1201862, “PubChem BioAssay data set” (2004) one finds EC50 and IC50 data, which are given here for 4 compounds.

Broadly, the EC50 is the midpoint of the concentration-response curve. By IC50 is commonly meant the concentration at which inhibition is half-maximal.

The target in test [1] is Peroxisome proliferator-activated receptor gamma/Nuclear receptor coactivator 2 (Homo sapiens, UniProt P37231). It counts as functional.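 Further: agonist potency for raising coactivator recruitment to the receptor.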
In test [2] the target is Peroxisome proliferator-activated receptor gamma/Nuclear receptor coactivator 1 (Homo sapiens, UniProt P37231). It counts as functional.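 Further: agonist potency as compounds enhance coactivator SRC-1 recruitment to PPARgamma.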
The target in test [3] is Peroxisome proliferator-activated receptor gamma/Nuclear receptor coactivator 3 (Homo sapiens, UniProt P37231). The class given is functional.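 Further: agonist potency for raising coactivator recruitment to the receptor.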
For test [4], the target named is T1, Heat shock 70 kDa protein 1A (Homo sapiens, UniProt P0DMV8). In words: Hsp70 inhibitors, biochemical, TR-FRET (AID 786).
Test [5] has as its target T1, Heat shock 70 kDa protein 1A. In words: Hsp70 inhibitors, probe displacement, primary screen, biochemical, fluorescence polarization (AID 583). A general note: Fluorescence polarisation rises when a labelled molecule tumbles more slowly, as on binding a larger partner.
Test [6] has as its system Streptococcus. The test is described as follows: Luminescence Microorganism-Based Dose Response Follow up to Identify Compounds Cytotoxic to Streptococcus. [Related pubchem assays: 1677 (Project Summary), 1915, 1914, 1902 (Retest at Dose), 1900 (Counter Screen), 1662 (Primary HTS)]. It counts as functional, organism-based. A general note: The purpose of a counterscreen is to sort out artefacts and off-target activity.

For a further test, the target named is T2, Streptokinase A (Streptococcus pyogenes serotype M1, UniProt P10520).
T2 sequence (P10520 whole entry): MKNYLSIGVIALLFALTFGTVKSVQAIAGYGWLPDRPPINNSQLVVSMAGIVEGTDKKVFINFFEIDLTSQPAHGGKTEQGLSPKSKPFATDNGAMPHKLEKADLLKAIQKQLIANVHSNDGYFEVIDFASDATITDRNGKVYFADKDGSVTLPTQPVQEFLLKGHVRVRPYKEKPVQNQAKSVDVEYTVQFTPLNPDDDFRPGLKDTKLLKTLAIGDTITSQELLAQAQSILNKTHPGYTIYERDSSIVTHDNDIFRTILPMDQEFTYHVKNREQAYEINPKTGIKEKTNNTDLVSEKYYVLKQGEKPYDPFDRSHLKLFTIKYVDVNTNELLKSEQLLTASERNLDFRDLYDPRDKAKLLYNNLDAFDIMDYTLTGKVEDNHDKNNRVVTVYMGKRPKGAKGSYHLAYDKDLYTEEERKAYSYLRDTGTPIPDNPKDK
The test is described as follows: S. pyogenes streptokinase expression inhibitors, potency, dose response, plasminogen activation absorbance, OD405 (AID 1914).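 Further: secreted streptokinase activity via plasminogen activation per viability signal from cell pellet.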 It counts as functional, Streptococcus pyogenes M1 GAS.

Test [7] deals with Streptococcus sp. 'group A'. In words: growth inhibition of control SK(-) GAS strain, dose response, counter-screen for streptokinase expression inhibitor project, luminescence, kanamycin, BacTiterGlo, confirmation (AID 1900). It counts as functional, organism-based.
For test [8], the target named is Epstein-Barr nuclear antigen 1 (Epstein-Barr virus (strain B95-8) (HHV-4) (Human herpesvirus 4), UniProt P03211). In words: EBNA-1 inhibitors, dose response, biochemical, fluorescence polarization, 1536-well (AID 2381).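 Further: fluorescence polarization of a Cy5 DNA probe bound by EBNA-1 protein.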 More on the design: species or system human gammaherpesvirus 4.
The test system of test [9] is Streptococcus. The test is described as follows: Group A Streptococcus viability loss, dose response, counter-screen for streptokinase expression inhibitor project, luminescence, BacTiterGlo (AID 1915).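 Further: potency for reduction of bacterial viability or growth.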 It counts as functional, organism-based.
Test [10] addresses Lytic switch protein BZLF1 (Epstein-Barr virus (strain B95-8) (HHV-4) (Human herpesvirus 4), UniProt P03206). The test is described as follows: EBV ZTA inhibitors, dose response, counter-screen for EBNA-1 inhibitor project, biochemical, fluorescence polarization, Epstein-Barr virus, 1536-well (AID 2377).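 Further: fluorescence polarization of Cy5-labelled ZRE DNA probe bound by purified Zta.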 Details: species or system human gammaherpesvirus 4.
Test [11] has as its target T3, Estrogen receptor (Homo sapiens, UniProt P03372).
T3 sequence (P03372 whole entry): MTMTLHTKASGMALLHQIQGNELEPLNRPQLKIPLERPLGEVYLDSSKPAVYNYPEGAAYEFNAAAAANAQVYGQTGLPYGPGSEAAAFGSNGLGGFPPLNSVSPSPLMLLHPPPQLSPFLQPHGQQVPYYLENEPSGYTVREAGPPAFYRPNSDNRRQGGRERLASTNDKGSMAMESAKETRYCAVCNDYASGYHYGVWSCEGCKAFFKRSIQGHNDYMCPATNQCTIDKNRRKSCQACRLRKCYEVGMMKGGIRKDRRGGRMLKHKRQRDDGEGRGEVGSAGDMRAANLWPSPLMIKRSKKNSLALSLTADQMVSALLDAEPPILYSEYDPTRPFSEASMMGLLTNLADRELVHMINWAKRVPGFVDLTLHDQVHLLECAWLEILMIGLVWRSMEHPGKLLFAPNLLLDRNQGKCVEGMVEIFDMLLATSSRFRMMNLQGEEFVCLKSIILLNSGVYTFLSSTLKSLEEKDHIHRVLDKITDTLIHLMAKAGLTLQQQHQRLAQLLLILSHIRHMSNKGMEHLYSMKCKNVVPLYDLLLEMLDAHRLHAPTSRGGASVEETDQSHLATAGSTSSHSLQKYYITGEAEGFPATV
The test is described as follows: ERα–SRC-3 coactivator interaction inhibitors, confirmation, orthogonal assay, biochemical, ELISA, streptavidin-HRP readout (AID 1079).

The next test addresses Estrogen receptor beta (Homo sapiens, UniProt Q92731). The test is described as follows: ERβ–SRC-3 coactivator interaction inhibitors, confirmation, orthogonal assay, biochemical, ELISA, streptavidin-HRP readout (AID 1060).
Test [12] concerns the target T3, Estrogen receptor.

Calls of active or inactive are those of the source.

T1 sequence (P0DMV8 whole entry): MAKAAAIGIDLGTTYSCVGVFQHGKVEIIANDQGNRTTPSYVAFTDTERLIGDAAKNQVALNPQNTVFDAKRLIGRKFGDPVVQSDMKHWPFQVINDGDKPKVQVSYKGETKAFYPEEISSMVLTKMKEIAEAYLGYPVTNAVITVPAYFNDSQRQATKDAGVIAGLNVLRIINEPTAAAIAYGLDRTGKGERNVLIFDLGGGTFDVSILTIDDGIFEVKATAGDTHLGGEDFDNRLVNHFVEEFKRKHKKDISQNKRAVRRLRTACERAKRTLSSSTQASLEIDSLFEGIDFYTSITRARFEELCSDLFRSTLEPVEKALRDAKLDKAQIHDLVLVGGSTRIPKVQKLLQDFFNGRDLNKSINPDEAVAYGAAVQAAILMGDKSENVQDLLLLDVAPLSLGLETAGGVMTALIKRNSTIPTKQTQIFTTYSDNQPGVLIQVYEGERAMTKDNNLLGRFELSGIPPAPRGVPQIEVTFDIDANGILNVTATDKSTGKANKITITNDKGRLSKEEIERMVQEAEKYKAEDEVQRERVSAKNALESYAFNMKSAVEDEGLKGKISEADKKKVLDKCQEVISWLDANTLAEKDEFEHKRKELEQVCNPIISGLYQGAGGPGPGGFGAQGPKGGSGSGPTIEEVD
Chain of Estrogen receptor beta (Q92731 whole entry): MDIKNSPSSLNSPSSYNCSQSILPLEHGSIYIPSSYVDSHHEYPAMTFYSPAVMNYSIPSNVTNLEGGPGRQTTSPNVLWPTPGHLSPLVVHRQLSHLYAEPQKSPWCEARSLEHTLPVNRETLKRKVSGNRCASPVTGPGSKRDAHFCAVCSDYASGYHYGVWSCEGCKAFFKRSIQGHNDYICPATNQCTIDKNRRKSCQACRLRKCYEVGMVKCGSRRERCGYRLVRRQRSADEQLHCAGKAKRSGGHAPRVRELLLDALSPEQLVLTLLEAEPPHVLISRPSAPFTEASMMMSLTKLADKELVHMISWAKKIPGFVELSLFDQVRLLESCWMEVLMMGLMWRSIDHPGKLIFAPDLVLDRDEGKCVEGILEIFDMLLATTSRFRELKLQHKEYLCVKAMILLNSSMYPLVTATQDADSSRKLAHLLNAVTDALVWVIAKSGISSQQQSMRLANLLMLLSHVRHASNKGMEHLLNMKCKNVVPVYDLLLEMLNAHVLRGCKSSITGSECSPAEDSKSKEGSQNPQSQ
Chain of Epstein-Barr nuclear antigen 1 (P03211 whole entry): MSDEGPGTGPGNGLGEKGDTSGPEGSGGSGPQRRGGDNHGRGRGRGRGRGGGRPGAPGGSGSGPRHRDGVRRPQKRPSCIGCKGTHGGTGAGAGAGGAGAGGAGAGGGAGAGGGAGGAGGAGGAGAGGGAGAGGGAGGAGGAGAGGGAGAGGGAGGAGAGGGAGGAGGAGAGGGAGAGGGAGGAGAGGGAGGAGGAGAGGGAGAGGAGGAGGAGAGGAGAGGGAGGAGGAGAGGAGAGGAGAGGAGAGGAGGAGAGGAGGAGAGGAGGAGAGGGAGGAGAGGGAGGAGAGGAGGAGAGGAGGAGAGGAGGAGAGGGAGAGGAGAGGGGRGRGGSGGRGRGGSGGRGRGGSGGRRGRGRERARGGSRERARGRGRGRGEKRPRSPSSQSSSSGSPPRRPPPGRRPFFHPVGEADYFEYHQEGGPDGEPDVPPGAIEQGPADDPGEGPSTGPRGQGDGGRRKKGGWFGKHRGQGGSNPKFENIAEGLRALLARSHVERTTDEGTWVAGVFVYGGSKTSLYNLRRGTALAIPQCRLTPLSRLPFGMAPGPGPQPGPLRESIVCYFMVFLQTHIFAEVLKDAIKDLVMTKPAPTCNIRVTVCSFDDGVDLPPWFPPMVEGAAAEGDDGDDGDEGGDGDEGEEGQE
Chain of Lytic switch protein BZLF1 (P03206 whole entry): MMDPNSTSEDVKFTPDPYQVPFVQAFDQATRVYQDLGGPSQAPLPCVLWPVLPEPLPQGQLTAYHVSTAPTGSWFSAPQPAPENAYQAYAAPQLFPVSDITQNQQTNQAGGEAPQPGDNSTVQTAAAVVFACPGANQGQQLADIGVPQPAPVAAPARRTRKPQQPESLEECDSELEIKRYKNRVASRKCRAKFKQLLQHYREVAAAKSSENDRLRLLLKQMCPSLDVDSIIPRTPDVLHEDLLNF
Chain of Peroxisome proliferator-activated receptor gamma/Nuclear receptor coactivator 2 (P37231 whole entry): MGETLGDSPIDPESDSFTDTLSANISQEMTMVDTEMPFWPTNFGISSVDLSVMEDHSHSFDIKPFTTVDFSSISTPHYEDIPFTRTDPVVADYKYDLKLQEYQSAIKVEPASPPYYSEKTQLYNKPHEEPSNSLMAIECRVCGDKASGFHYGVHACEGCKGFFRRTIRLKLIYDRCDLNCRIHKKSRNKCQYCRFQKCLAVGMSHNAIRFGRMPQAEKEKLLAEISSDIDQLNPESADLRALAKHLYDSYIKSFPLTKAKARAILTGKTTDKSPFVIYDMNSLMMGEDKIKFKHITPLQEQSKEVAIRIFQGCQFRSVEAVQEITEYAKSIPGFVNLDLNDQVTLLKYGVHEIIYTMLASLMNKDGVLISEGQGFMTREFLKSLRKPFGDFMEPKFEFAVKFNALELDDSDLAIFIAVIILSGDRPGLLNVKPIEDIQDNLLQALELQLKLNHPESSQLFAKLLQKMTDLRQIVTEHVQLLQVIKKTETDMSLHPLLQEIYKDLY
Chain of Peroxisome proliferator-activated receptor gamma/Nuclear receptor coactivator 2 (Q15596 whole entry, further chain): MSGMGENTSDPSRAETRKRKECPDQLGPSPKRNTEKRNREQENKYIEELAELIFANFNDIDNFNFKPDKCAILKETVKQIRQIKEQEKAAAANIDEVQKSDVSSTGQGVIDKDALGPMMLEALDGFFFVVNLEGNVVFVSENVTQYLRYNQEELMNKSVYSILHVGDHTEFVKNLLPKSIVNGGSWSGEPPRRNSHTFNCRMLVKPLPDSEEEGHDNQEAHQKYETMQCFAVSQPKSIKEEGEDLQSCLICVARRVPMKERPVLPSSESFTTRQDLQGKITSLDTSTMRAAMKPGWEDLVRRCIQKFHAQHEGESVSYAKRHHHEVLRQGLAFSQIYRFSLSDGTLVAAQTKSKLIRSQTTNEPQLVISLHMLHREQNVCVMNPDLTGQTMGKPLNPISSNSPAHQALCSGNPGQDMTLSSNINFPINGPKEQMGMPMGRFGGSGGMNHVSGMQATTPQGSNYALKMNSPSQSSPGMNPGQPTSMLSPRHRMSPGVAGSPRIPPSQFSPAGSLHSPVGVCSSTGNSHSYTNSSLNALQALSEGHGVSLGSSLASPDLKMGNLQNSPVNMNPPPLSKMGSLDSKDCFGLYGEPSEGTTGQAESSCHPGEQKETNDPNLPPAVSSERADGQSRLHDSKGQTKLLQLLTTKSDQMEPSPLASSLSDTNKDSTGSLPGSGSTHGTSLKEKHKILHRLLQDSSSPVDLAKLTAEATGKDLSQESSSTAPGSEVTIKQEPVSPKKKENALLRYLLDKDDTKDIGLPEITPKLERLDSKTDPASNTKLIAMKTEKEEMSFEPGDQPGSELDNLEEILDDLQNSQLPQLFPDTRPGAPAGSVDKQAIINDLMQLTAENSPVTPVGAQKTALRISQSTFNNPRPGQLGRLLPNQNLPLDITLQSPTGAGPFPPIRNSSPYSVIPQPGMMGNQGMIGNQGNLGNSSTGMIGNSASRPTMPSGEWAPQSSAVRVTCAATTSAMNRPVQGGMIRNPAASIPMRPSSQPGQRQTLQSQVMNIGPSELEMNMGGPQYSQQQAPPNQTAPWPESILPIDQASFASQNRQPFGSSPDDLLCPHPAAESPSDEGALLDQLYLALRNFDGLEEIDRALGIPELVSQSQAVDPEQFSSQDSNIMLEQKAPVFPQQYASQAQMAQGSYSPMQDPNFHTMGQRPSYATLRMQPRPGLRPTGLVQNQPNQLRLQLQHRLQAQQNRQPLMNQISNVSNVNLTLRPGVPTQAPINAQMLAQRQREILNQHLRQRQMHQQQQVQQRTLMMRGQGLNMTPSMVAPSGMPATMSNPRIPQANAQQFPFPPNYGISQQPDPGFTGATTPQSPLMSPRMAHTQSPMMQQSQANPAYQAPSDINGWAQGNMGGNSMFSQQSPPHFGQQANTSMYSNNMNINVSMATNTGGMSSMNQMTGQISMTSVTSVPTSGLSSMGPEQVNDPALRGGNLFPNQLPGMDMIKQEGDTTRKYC

Regarding `CCn1cc(CNCc2cn(C)nc2-c2ccc(C3CCCCC3)cc2)cn1`, the EC50 in test [1], in test [2] and in [3] was > 79.4 µM (not active) each time.

Regarding `CCOC(=O)N1CCN(CC(=O)Nc2cc(OCC)ccc2OCC)CC1`, the IC50 in test [4] and in test [5] was > 100 µM (not active) in each case.

For `O=[N+]([O-])c1ccccc1NCCNc1ncc(C(F)(F)F)cc1Cl`, the EC50 is > 500 µM (not active) in the test with Streptococcus [6], 5.57 µM (active) at Streptokinase A, > 150 µM (not active) in [7] and > 150 µM (not active) in the test on Streptococcus [9]. For the same compound, the figures for the IC50 in [8] and in test [10] were 16.8 µM (not active) and 23.5 µM (not active), respectively.

For the compound `O=C(CCCn1c(=S)[nH]c2ccccc2c1=O)N1CCN(c2cccc(Cl)c2)CC1`, the IC50 was 0.12 µM (not active) against Estrogen receptor [11], > 50 µM (not active) against Estrogen receptor beta and 5.73 µM (active) at Estrogen receptor [12].
